PMC6627331, “Identification of Small Molecule Inhibitors of Staphylococcus aureus RnpA” (Antibiotics, 2019)
Converted amounts (≈) assume the structure as drawn. Like-named read-outs stand apart in the source and are kept apart here.

Experiments:
S. aureus UAMS-1 [1] = experiment: Minimum inhibitory concentration (MIC) testing; assay type: cell-based, Staphylococcus aureus
Experimental: Minimum inhibitory concentration (MIC) testing was performed using to Clinical & Laboratory Standards Institute (CLSI) guidelines. Accordingly, individual wells of a 96-well microtiter plate were inoculated with 10^4 colony forming units (CFU) of S. aureus UAMS-1 containing two-fold increasing concentrations (0 to 256 μg·mL^−1) of the indicated antibiotic or putative RnpA inhibitor compound, and incubated at 37 °C for 16 h in MHB. The MIC was defined as the lowest concentration of compound in which there was no visible bacterial growth in the well.

[2] = test system: all cellular mRNA species of S. aureus UAMS-1; experiment: Global cellular mRNA turnover (Affymetrix GeneChip); assay type: cell-based, Staphylococcus aureus; details: 0.5× MIC; mock (DMSO) 84.8%
Experimental: S. aureus mRNA half-life determinations were performed as previously described. […] Rifampin (Sigma-Aldrich) was added to the culture at a final concentration of 200 μg·mL^−1 to inhibit de novo transcript synthesis. Half of the culture was immediately removed and combined with an equal volume of ice cold acetone:ethanol (1:1 v/v). The remaining culture was returned to the shaking 37 °C incubator for an additional 5 min and then subsequently combined with an equal volume of ice cold acetone:ethanol (1:1 v/v) and stored at −80 °C until processing, as described below.
Briefly, following the manufacturer’s instructions for prokaryotic arrays, reverse transcription was carried out on 10 µg of total bacterial RNA and control eukaryotic poly(A) RNA (Affymetrix). […] Transcript signal intensity values were read using the Affymetrix GeneChip® Scanner, and intensity values for each ORF and intergenic region were averaged among the biological replicates (n ≥ 2). Signals were normalized to the control poly(A) cDNA intensity values using GeneSpring 7.2 software (Agilent Technologies, Redwood City, CA, USA) and the number of transcripts with a decrease in transcript signal of >2-fold were determined.

[3] = test system: S. aureus RN4220 pML100::rnpA-KD; experiment: Cellular RnpA depletion hypersusceptibility growth curve; assay type: cell-based, Staphylococcus aureus; details: […] MIC JC2 or 0.5× MIC RNPA2000
Experimental: 100 μL of each culture was transferred to a 96 well flat bottom plate in duplicate and growth monitored by OD600 reading every 30 min over 8 h at 37 °C. Hypersusceptibility growth curves were averaged from two biological replicates in technical duplicate.

S. aureus UAMS-1 [4] = experiment: Fractional inhibitory concentration (FIC) testing; assay type: cell-based, Staphylococcus aureus; details: checkerboard, 16 h
Experimental: Fractional inhibitory concentration (FIC) testing was performed to determine the combined effects of the indicated antibiotic and the putative RnpA inhibitor following the procedures of Odds and colleagues. To do so, individual wells of a 96-well microtiter plate were inoculated with 10^4 colony forming units (CFU) of S. aureus UAMS-1 in MHB. Each row of the plate contained two-fold increasing concentrations of the indicated antibiotic (0, 0.03, 0.06, 0.125, 0.25, 0.5, 1, 2, or 4× MIC), whereas each column contained increasing concentrations of the putative RnpA inhibitor compound (0, 0.03, 0.06, 0.125, 0.25, 0.5, 1, 2, or 4× MIC). Plates were incubated at 37 °C for 16 h and growth was determined by the unaided eye. The FIC was defined using the following formula: FIC = (MIC of Drug A in Combination/MIC of Drug A Alone) + (MIC of Drug B in Combination/MIC of Drug B Alone). A synergistic interaction was defined as an FIC value ≤ 0.5, an additive interaction as 0.5 < FIC < 1, no interaction as 1 ≤ FIC < 4, and an antagonistic interaction as FIC ≥ 4.

S. aureus USA300 = experiment: MIC against clinical strain USA300; assay type: cell-based, Staphylococcus aureus
E. coli = experiment: Antimicrobial activity toward E. coli; assay type: cell-based, Escherichia coli
[5] = test system: S. aureus strain UAMS-1, USA300 or BAA-1708; experiment: Selection of spontaneous resistant cells in liquid culture; assay type: cell-based, Staphylococcus aureus; details: 24 h incubation in liquid culture, 2× MIC
Galleria mellonella = Galleria mellonella single tolerated dose (uninfected worms); assay type: in vivo; details: single dose 100 mg·kg^−1, 16 h
Experimental: An overnight culture of S. aureus strain UAMS-1 was used to inoculate (1:100 dilution) 25 mL of fresh MH medium and growth at 37 °C on a rotary shaker at 225 rpm to exponential phase (~1 × 10^8 CFU mL^−1). Cultures were pelleted by centrifugation, washed with phosphate buffered saline (PBS), and re-suspended at ~1 × 10^7 CFU·mL^−1 in fresh PBS. G. mellonella larvae weighing 150–250 mg were inoculated with 5 µL of S. aureus into the last left proleg using a 10 µL Hamilton syringe. About 1 h after inoculation, one group of worms was treated with 2 µL DMSO as infected negative control; one group was treated with 2 µL JC2 compound at 100 mg/kg dose; another group was treated with 2 µL vancomycin at 100 mg/kg dose as standard-of-care comparison. Treatments were administered in the same manner as infection, except that each injection was in the next left proleg moving towards the head of the worm. […] In addition to the mock or compound treatment of infected larvae, a group of non-infected worm injected with DMSO or corresponding compounds were used to monitor the impact of physical trauma as well as observe toxicity associated with compound treatment.

`CC1CCCCN1C(=O)Nc1cc(Cl)cc(Cl)c1` (centres unmarked) [JC2] was tested, and the MIC (S. aureus UAMS-1 [1]; S. aureus UAMS-1, 16 h in MHB, listed as 9049625) was 1 µg/mL (≈ 3.48 µM), the MIC (S. aureus UAMS-1 [1]; Staphylococcus aureus, UAMS1, 16 h, Table S1, mupirocin synergy screening initial hits, read-out: MIC) was 1 µg/mL and the MIC (S. aureus UAMS-1 [1]; Staphylococcus aureus, UAMS1, SAR figures, S. aureus UAMS-1, read-out: MIC) was 0.5 µg/mL (≈ 1.74 µM). The “transcript species with a half-life of ≤5 min” value [2] was 51.6%, the “growth of RnpA-depleted cells (RnpA-KD) versus vector cells” value [3] was “displayed a growth defect” and the “FIC in combination with ampicillin” value (S. aureus UAMS-1 [4]) was 2. The “FIC in combination with erythromycin” value (S. aureus UAMS-1 [4]) was 2, the “FIC in combination with mupirocin” value (S. aureus UAMS-1 [4]) was 0.875 and the “FIC in combination with trimethoprim” value (S. aureus UAMS-1 [4]) was 2. For the same compound, the MIC (S. aureus USA300) was 0.5 µg/mL (≈ 1.74 µM), the MIC (S. aureus USA300; Staphylococcus aureus, read-out: MIC) was 0.5 µg/mL (≈ 1.74 µM) and the “antimicrobial activity toward E. coli” value (E. coli) was “did not shown antimicrobial activity”. The “selection of spontaneous resistant cells” value [5] was “unable to select for spontaneous JC2 resistant” and the “mortality rate of uninfected worms” value (Galleria mellonella) was “did not display any treatment-associated lethality”.
